Test results from US20250354111A1, “BOVINE SEX-SORTED SPERM SORTING SOLUTION MEDIATED BY SMALL MOLECULE COMPOUND AND ITS APPLICATION” (Inner Mongolia University, priority 2024, published 2025).

Test system: bovine sperm
Experiment: Effect of creatine concentration on sorting of X and Y sperm in sorting solution with 24e drug (Example 2)
Type: cell-based
Details: creatine 500 μM with 24e drug 0.3 μM; 37° C., 60 min; 6x107 sperm/mL
Protocol: Based on the exploration in Example 1 that the range of 0.27 μM-0.33 μM is the optimal concentration range for the 24e drug to sort bovine sperm, the effect of creatine on the sperm sorting effect was examined by incubating bovine sperm with creatine added to the sorting solution with a 24e drug concentration of 0.3 μM.
Fresh bovine semen provided by the Grassland Livestock Germplasm Innovation and Breeding Base of Inner Mongolia University was used, washed with in vitro fertilization solution, and after dilution, the sperm density was 6x107 sperm/mL. At 37° C., the 24e drug was added to the sperm sorting protection solution to make the final concentration of the 24e drug 0.3 μM. On this basis, creatine was added, and bovine sperm was incubated for 60 min. The amounts of creatine used were 0 μM (control group), 200 μM, 300 μM, 400 μM, 500 µM, and 600 μM. The sorting effect of sperm at each creatine concentration was obtained by analyzing the sperm in the upper and lower layers, as shown in FIG. 2. […] In the upper layer of sperm, the percentage of X sperm is 22%, and the percentage of Y sperm is 78%. Creatine can enhance the activity of sperm, so that Y sperm floats up faster, while the activity of X sperm is inhibited by the 24e drug and sinks, making the stratification more obvious and improving the sorting efficiency. When the sperm density is 6x10^7 sperm/mL, the concentration of the 24e drug is 0.27 μM-0.33 μM, and the creatine concentration is 500 μM-600 μM, the sorting effect on bovine sperm is the best.

For CN(CC(=O)O)C(=N)N [creatine], the “percentage of X sperm in the lower layer of sorted sperm” value was 70.33%, the “percentage of X sperm in the upper layer of sperm” value was 22% and the “percentage of Y sperm in the lower layer of sorted sperm” value was 29.67%. For the same compound, the “percentage of Y sperm in the upper layer of sperm” value was 78%.
